Results taken from PMC8119466, “A screen of FDA-approved drugs identifies inhibitors of protein tyrosine phosphatase 4A3 (PTP4A3 or PRL-3)” (Scientific Reports, 2021).

Columns and labels:
recombinant PRL-2 = molecular target: T1, recombinant PRL-2 (Homo sapiens, UniProt Q12974); assay: In vitro phosphatase assay (DiFMUP hydrolysis), PRL-2; assay type: biochemical; conditions: for % Phosphatase Activity (compared to DMSO) PRL-2: FDA-approved drug screen;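 as to all read-outs here: PRL-2 activity read as DiFMUP hydrolysis after 20 min at room temperature with drug, enzyme first pre-reduced at 4 °C for 20 min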
T1 construct: 6xHis (N, cleaved yes); made in house; host or cells: E. coli One Shot BL21 Star
T1 sequence (Q12974 1-167): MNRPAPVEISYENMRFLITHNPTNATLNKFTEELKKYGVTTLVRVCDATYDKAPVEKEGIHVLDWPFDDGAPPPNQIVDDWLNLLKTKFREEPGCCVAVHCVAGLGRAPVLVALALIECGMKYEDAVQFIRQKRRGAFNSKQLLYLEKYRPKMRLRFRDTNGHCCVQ

HEK293T cells [1] = assay: MTT viability assay; assay type: cell-based, human; conditions: 16 h
Protocol: Cells were seeded into duplicate wells of a 96 well plate at a density of 2 × 10^4 cells per well and allowed to recover for 24 h. Cells were then treated with drug or DMSO at the indicated concentrations for 16 h. Following drug treatment, 10 μL of 5 mg/ml MTT (Sigma, M5655) was added to each well and cells were incubated for 4 h. Finally, media were removed, and the dye was solubilized in 100 μL of 0.1 M HCl in isopropanol. Absorbance was measured at 570 nm and 690 nm with final absorbance measurements as 570–690 nm.

HEK293T cells [2] = assay: Scratch (migration) assay, HEK293T transfected with PRL-3 or empty vector; assay type: cell-based, human; conditions: compared to DMSO; for cellular migration in control cells: HEK293T empty vector, 24 h; for cellular migration in PRL-3 overexpressing cells: HEK293T transfected with PRL-3, 24 h
Protocol: (§1) pENTR-PRL-3 (previously described[51]) was cloned into pLKO-CMV-puro using LR clonase (Thermofisher, 11,791,019) according to manufacturer’s directions. pLKO-CMV empty vector (EV) and pLKO-CMV:PRL-3 were transfected into HEK293T using Lipofectamine 3000 (ThermoFisher, L3000015) according to manufacturer’s protocol. Transfected cells were selected with 1 µg/mL puromycin in complete media to establish the cell line, then were maintained under 0.5 µg/mL puromycin in complete media. For PRL-3 knockdown, pLKO.1-scrambled shRNA and pLKO.1-PRL-3 shRNA[51] plasmids were transfected into HCT116 cells using Lipofectamine 3000 (Thermo Fisher, Cat # L3000015) according to the manufacturer’s directions. Cells were selected for 48 h in 1 µg/mL puromycin before use in assays.
(§2) Cells were seeded into duplicate wells of a 48 well plates at a density of 2 × 10^5 cells per well for HEK293T or 4 × 10^5 for HCT116 and SW480. Cells were recovered overnight and were scratched using a p20 pipette tip the following day. Compounds were added at the concentrations indicated. Images were obtained immediately after the scratch and after a 24 h incubation with the drug on an Evos FL inverted microscope (ThermoFisher). The area within the scratch was calculated using ImageJ. The area migrated was measured as the difference in wound area at 0 h and 24 h and the percent change in migration was calculated by dividing the difference in wound area of treatment by the difference in wound area of the control.

HCT116 cells = assay: Scratch (migration) assay, HCT116; assay type: cell-based, human; conditions: 24 h, 100 µM Salirasib or 25 µM Candesartan
Protocol: as §1, §2

SW480 cells [3] = assay: Scratch (migration) assay, SW480; assay type: cell-based, human; conditions: 24 h, 100 µM Salirasib or 25 µM Candesartan, vs DMSO
Protocol: as §2

HEK293T cells [4] = assay: Click-IT Edu cell proliferation assay, HEK293T; assay type: cell-based, human; conditions: 100 µM Salirasib or 25 µM Candesartan, 24 and 48 hr
Protocol: (§3) The cell proliferation assay was performed using the Click-IT Edu cell proliferation kit from (Thermo Fisher, Cat # C10419) according to the manufacturer’s protocol. Briefly, HEK293T, HCT116 and SW480 cells were plated in 6 well dishes at 4 × 10^5 cell seeding density and treated with DMSO, Candesartan and Salirasib at the indicated concentrations. Edu was added 2 h prior to collecting the cells at 24 h and 48 h time points and the assay was performed according to the instructions from the manual. Flow cytometry with AlexaFluor647 conjugated azide dye was used to determine the cellular proliferation and DAPI was used for the DNA content.

SW480 cells [5] = assay: Click-IT Edu cell proliferation assay, SW480; assay type: cell-based, human; conditions: 100 µM Salirasib or 25 µM Candesartan, 24 and 48 hr
Protocol: as §3

phospho-ERK = assay: Western blot of phospho-ERK in HCT116 cells; assay type: cell-based, human; conditions: HCT116, 24 hr; 100 µM Salirasib, 25 µM Candesartan
Protocol: Cells were lysed using Qproteome lysis buffer (Qiagen, Cat # 37901), then spun at 14,000 rpm for 10 min at 4 °C. Protein concentration in the supernatant was quantified using BCA assay (Thermo Scientific, Cat # 23227). 30 μg of protein was loaded into each lane of a TGX-stain-free pre-cast 4–20% SDS gel (Biorad, Cat # 4568094), total protein was quantified upon stain-free gel imaging, and protein was transferred onto PVDF membrane using the Trans-Blot Turbo Transfer System (BioRad, Cat # 1704150). Membranes were blocked with 5% milk in 1% TBST for 1 h, and a 1:1000 dilution of Anti-PRL-3 antibody (R&D Biosystems, Cat # MAB3219), 1:5000 phospho-ERK (Cell Signaling, Cat # 19101) or 1:5000 total ERK (Cell Signaling, Cat # 137F5) was added overnight. Following three washes in TBST, secondary HRP-conjugated antibody (GE, Cat # NA9340V) were added at a 1:5000 dilution for 1 h and membranes imaged using Clarity Western ECL Substrate. (BioRad, Cat # 1705061).

ACP1 (LMPTP-A) = molecular target: T2, ACP1 (LMPTP-A) (Homo sapiens, UniProt P24666); assay: PhosphataseProfiler (Eurofins) selectivity panel; assay type: biochemical; conditions: 25µM
T2 construct: purchased Eurofins PP260
T2 sequence (P24666 whole entry): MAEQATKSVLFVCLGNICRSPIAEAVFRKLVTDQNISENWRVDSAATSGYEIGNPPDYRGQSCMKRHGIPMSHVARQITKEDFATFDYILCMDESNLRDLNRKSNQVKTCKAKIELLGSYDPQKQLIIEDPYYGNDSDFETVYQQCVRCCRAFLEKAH
Protocol: Briefly, protein was diluted in reaction buffer and allowed to incubate at 4 °C for 20 min to allow for full reduction of the active site. DiFMUP, drug, and protein were added, and plates were incubated for 20 min at room temperature. Fluorescence intensities were measured on a Cytation 5 plate reader (Biotek) at an EX:360 nm and EM:460 nm. […] Inhibition selectivity for PRLs over a panel of other phosphatases was determined using PhosphataseProfiler (Eurofins, Cat # PP260).

MKP5 = molecular target: T3, MKP5 (Homo sapiens, UniProt Q9Y6W6); assay: PhosphataseProfiler (Eurofins) selectivity panel; assay type: biochemical; conditions: MKP5, 25µM
T3 construct: purchased Eurofins PP260
T3 sequence (Q9Y6W6 whole entry): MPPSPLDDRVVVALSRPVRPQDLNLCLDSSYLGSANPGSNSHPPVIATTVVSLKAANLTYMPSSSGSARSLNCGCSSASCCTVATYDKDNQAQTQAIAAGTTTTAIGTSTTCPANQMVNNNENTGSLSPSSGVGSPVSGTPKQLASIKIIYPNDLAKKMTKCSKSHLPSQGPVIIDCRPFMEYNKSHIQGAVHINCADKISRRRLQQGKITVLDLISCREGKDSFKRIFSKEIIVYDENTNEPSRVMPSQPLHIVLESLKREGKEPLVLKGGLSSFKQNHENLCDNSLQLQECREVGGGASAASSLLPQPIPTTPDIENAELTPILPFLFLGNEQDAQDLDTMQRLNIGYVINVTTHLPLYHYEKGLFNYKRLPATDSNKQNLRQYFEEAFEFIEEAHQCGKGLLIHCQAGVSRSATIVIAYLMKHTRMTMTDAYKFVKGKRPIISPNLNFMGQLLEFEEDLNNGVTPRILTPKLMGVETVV
Protocol: (§4) Inhibition selectivity for PRLs over a panel of other phosphatases was determined using PhosphataseProfiler (Eurofins, Cat # PP260).

PP1alpha = molecular target: T4, PP1alpha (Homo sapiens, UniProt P62136); assay: PhosphataseProfiler (Eurofins) selectivity panel; assay type: biochemical; conditions: 25µM
T4 construct: purchased Eurofins PP260
T4 sequence (P62136 whole entry): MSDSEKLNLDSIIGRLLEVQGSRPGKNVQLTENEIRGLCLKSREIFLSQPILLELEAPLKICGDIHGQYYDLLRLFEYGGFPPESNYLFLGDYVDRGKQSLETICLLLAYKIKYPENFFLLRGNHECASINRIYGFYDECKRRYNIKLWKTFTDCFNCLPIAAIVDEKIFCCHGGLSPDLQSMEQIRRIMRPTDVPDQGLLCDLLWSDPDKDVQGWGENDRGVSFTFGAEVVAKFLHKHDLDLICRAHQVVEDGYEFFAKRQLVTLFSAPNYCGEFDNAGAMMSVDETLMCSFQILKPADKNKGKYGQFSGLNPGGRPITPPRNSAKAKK
Protocol: as §4

PTP1B = molecular target: T5, PTP1B (Homo sapiens, UniProt P18031); assay: PhosphataseProfiler (Eurofins) selectivity panel; assay type: biochemical; conditions: 25µM
T5 construct: purchased Eurofins PP260
Protocol: as §4

PTPbeta = molecular target: T6, PTPbeta (Homo sapiens, UniProt P23467); assay: PhosphataseProfiler (Eurofins) selectivity panel; assay type: biochemical; conditions: 25µM
T6 construct: purchased Eurofins PP260
T6 sequence (P23467 23-1997): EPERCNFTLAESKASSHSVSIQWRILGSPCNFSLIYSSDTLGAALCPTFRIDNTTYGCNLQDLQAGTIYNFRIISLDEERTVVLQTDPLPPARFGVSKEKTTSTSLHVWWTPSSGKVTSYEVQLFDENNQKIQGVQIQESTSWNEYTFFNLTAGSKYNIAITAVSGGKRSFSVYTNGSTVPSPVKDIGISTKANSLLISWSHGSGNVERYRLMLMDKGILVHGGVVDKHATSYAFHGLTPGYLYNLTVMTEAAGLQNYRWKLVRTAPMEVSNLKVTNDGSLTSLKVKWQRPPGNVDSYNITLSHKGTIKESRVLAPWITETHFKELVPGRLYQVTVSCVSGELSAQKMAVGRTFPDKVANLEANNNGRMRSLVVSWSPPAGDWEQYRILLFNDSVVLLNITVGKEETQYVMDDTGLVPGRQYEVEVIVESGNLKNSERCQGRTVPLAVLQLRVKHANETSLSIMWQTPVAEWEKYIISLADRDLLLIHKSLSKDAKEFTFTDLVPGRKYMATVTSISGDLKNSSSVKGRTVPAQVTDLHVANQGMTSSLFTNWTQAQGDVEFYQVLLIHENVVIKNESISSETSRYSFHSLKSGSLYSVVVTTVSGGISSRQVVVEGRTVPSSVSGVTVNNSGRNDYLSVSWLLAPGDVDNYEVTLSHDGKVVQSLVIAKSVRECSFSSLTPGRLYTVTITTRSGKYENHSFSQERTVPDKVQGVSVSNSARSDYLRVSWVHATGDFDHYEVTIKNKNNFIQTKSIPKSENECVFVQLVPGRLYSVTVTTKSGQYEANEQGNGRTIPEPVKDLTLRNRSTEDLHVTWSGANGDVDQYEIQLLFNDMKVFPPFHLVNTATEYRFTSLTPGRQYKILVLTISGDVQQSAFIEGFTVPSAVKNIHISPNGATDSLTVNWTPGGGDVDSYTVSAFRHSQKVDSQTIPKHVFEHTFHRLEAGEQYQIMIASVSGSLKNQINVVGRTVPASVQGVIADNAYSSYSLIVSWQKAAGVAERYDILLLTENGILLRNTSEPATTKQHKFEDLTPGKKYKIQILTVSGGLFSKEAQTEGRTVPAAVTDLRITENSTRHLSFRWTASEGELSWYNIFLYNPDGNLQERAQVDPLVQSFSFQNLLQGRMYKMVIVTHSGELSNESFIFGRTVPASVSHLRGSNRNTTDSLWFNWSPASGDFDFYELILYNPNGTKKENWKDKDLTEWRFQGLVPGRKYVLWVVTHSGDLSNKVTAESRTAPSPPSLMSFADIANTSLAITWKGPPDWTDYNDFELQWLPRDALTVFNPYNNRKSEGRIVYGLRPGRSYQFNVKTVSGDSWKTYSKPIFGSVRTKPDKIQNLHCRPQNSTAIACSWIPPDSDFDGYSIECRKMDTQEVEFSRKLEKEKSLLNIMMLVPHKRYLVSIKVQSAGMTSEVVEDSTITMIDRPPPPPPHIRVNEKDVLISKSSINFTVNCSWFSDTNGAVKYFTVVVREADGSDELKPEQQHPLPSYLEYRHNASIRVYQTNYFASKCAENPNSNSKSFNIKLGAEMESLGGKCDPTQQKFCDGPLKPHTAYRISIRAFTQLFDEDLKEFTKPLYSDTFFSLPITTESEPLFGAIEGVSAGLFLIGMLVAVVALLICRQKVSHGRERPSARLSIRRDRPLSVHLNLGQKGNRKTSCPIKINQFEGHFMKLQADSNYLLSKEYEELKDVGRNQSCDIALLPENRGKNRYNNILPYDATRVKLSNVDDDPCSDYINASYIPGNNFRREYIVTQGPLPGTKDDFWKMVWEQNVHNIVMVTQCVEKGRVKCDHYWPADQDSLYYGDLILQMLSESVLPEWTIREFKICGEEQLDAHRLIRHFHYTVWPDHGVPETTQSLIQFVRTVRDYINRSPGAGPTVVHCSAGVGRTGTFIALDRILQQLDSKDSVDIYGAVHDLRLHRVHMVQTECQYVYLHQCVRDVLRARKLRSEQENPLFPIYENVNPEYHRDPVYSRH
Protocol: as §4

PTPN22 = molecular target: T7, PTPN22 (Homo sapiens, UniProt Q9Y2R2); assay: PhosphataseProfiler (Eurofins) selectivity panel; assay type: biochemical; conditions: PTPN22, 25µM
T7 construct: purchased Eurofins PP260
T7 sequence (Q9Y2R2 whole entry): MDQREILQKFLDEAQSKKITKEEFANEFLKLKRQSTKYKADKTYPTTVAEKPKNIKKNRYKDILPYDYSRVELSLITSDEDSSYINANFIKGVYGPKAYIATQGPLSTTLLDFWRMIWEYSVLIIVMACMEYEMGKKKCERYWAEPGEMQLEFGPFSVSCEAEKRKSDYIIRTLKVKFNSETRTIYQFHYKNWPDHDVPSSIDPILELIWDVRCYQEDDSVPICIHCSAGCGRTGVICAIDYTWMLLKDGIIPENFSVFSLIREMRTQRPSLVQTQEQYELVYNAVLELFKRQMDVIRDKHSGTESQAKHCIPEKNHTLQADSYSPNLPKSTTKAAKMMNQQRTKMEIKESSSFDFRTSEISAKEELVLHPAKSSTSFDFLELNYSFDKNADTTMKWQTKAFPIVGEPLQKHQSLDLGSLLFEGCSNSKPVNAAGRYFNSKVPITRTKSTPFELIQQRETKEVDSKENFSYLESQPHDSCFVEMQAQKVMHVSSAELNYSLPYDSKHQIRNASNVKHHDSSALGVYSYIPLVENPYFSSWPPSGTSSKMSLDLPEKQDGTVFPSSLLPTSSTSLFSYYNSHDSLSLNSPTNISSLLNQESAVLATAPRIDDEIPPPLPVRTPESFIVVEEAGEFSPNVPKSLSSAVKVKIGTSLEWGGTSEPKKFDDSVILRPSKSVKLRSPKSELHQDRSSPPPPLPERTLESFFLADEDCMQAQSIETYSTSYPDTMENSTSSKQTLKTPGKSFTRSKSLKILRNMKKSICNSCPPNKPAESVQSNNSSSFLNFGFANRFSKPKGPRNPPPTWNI
Protocol: as §4

SHP1 = molecular target: T8, SHP1 (Homo sapiens, UniProt P29350); assay: PhosphataseProfiler (Eurofins) selectivity panel; assay type: biochemical; conditions: SHP1, 25µM
T8 construct: purchased Eurofins PP260
T8 sequence (P29350 whole entry): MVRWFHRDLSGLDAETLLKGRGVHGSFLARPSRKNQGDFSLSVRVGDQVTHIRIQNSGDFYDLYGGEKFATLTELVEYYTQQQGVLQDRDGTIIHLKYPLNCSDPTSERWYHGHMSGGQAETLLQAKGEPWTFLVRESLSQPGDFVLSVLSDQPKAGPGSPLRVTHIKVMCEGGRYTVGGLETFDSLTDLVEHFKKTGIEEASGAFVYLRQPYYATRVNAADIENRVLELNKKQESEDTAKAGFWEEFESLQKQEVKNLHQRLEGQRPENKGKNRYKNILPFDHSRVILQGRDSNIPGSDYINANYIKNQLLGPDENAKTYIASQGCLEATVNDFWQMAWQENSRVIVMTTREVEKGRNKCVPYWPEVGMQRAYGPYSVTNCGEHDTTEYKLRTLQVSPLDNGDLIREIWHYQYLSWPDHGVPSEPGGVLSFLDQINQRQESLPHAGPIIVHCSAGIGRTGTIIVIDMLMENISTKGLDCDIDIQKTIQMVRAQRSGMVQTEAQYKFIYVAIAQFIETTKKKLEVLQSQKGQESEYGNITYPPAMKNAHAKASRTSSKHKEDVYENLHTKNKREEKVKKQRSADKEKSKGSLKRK
Protocol: as §4

SHP2 = molecular target: T9, SHP2 (Homo sapiens, UniProt Q06124); assay: PhosphataseProfiler (Eurofins) selectivity panel; assay type: biochemical; conditions: SHP2, 25µM
T9 construct: purchased Eurofins PP260
T9 sequence (Q06124 whole entry): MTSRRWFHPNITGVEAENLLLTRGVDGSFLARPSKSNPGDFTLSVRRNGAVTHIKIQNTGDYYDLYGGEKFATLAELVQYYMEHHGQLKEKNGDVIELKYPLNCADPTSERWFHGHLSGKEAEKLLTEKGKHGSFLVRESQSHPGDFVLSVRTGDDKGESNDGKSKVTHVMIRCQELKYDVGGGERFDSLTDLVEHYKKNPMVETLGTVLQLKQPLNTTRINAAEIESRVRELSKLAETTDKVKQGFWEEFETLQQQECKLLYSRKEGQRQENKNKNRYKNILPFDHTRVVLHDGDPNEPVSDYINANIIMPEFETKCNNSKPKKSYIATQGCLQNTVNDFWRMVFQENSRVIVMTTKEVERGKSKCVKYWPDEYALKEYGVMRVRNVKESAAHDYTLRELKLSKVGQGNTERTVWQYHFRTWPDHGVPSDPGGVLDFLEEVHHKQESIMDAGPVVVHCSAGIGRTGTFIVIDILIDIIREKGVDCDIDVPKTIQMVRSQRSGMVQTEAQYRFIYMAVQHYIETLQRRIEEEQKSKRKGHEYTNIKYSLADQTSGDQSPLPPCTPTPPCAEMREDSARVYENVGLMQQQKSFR
Protocol: as §4

CCOc1nc2cccc(C(=O)O)c2n1Cc1ccc(-c2ccccc2-c2nnn[nH]2)cc1 [Candesartan]
% Phosphatase Activity (compared to DMSO) PRL-2 (recombinant PRL-2): 92%
% Phosphatase Activity (compared to DMSO) PRL-2 (recombinant PRL-2; listed as Candesartan Cilexetil): 13%
IC50 (recombinant PRL-2; […] protein, DiFMUP at KM, read-out: Calculated IC50, PRL-2 phosphatase activity): 80 ± 15 µM
viability (MTT) (HEK293T cells [1]; 100 µM): viability dropped significantly
viability (MTT) (HEK293T cells [1]; up to 50 µM): insignificant effect on viability
cellular migration in control cells (HEK293T cells [2]): no corresponding reduction in migration
cellular migration in PRL-3 overexpressing cells (HEK293T cells [2]): significant inhibition of cellular migration
migration of HCT116 cells with PRL-3 knock-down (PRL-3 shRNA) (HCT116 cells): no additional impact on migration
inhibition of migration of HCT116 cells (HCT116 cells; vs DMSO): > 30%
inhibition of migration of SW480 cells (SW480 cells [3]): > 30%
cell cycle (EdU staining) (HEK293T cells [4]): did not significantly impact
cell cycle (EdU staining) (SW480 cells [5]): did not significantly impact
phospho-ERK levels (phospho-ERK): decreased phospho-ERK levels
Percent Phosphatase Activity (compared to DMSO) (ACP1 (LMPTP-A)): 97%
Percent Phosphatase Activity (compared to DMSO) (MKP5): 99%
Percent Phosphatase Activity (compared to DMSO) (PP1alpha): 105%
Percent Phosphatase Activity (compared to DMSO) (PTP1B): 109%
Percent Phosphatase Activity (compared to DMSO) (PTPbeta): 85%
Percent Phosphatase Activity (compared to DMSO) (PTPN22): 136%
Percent Phosphatase Activity (compared to DMSO) (SHP1): 116%
Percent Phosphatase Activity (compared to DMSO) (SHP2): 104%

CC(C)=CCC/C(C)=C/CC/C(C)=C/CSc1ccccc1C(=O)O [Salirasib]
% Phosphatase Activity (compared to DMSO) PRL-2 (recombinant PRL-2): 6%
viability (MTT) (HEK293T cells [1]; drug doses 1 to 100 µM, normalized to 1% DMSO): no effect on the viability
cellular migration in control cells (HEK293T cells [2]): no corresponding reduction in migration
cellular migration in PRL-3 overexpressing cells (HEK293T cells [2]): significant inhibition of cellular migration
migration of HCT116 cells with PRL-3 knock-down (PRL-3 shRNA) (HCT116 cells): significantly reduced migration
inhibition at 100 µM (HCT116 cells; Homo sapiens, HCT-116, vs DMSO): > 30%
inhibition at 100 µM (SW480 cells [3]; Homo sapiens, SW480): > 30%
cell cycle (EdU staining) (HEK293T cells [4]): did not significantly impact
cell cycle (EdU staining) (SW480 cells [5]): did not significantly impact
phospho-ERK levels (phospho-ERK): decreased phospho-ERK levels
Percent Phosphatase Activity (compared to DMSO) (ACP1 (LMPTP-A)): 96%
Percent Phosphatase Activity (compared to DMSO) (MKP5): 106%
Percent Phosphatase Activity (compared to DMSO) (PP1alpha): 104%
Percent Phosphatase Activity (compared to DMSO) (PTP1B): 114%
Percent Phosphatase Activity (compared to DMSO) (PTPbeta): 91%
Percent Phosphatase Activity (compared to DMSO) (PTPN22): 129%
Percent Phosphatase Activity (compared to DMSO) (SHP1): 113%
Percent Phosphatase Activity (compared to DMSO) (SHP2): 103%
